For the data set the following is noted: Liquid.

Molecules are shown by their SMILES. ± gives the expanded uncertainty stated by the source.

As usually defined, the vapor or sublimation pressure is the pressure of vapour in equilibrium with the condensed phase. On to `O=C=O` [carbon dioxide], for which the “vapor or sublimation pressure” value is 1964.8 ± 49 kPa (253.15 K); 2641.8 ± 66 kPa (263.15 K); 3478.5 ± 86 kPa (273.15 K); 4497.8 ± 110 kPa (283.15 K); 5723.7 ± 140 kPa (293.15 K); 7206.2 ± 180 kPa (303.15 K).

Consider `CCC` [propane], for which the “vapor or sublimation pressure” value by setting is: (253.15 K) 244.2 ± 6.2 kPa; (263.15 K) 344.7 ± 8.7 kPa; (273.15 K) 473.9 ± 12 kPa; (283.15 K) 636.3 ± 16 kPa; (293.15 K) 836.3 ± 21 kPa; (303.15 K) 1079.6 ± 27 kPa. Further, the “vapor or sublimation pressure” value is listed as 1369.8 ± 34 kPa (313.15 K) and 1714.5 ± 43 kPa (323.15 K).

These data come from the NIST ThermoML archive (doi:10.1016/j.fluid.2005.09.006).
